Data from BindingDB's records for doi:10.1016/j.ab.2004.03.009 (Schering-Plough Research Institute, 2004).

Biological target: E3 ubiquitin-protein ligase Mdm2 (Homo sapiens, UniProt Q00987)
Assay: Fluorescence Polarization (FP) Binding Assay
Details: pH 7.4; 23 °C
Experimental: Ki values were determined from a competition experiment in which serial dilutions of inhibitor were added to compete against a fixed concentration (1 or 10 nM) of the fluorescent ligand for binding to a fixed concentration of the protein. Ki value was determined by nonlinear regression fitting of the competition curve using a set of custom equations and an Excel curve fitting tool.

Sequence of E3 ubiquitin-protein ligase Mdm2 (Q00987 whole entry): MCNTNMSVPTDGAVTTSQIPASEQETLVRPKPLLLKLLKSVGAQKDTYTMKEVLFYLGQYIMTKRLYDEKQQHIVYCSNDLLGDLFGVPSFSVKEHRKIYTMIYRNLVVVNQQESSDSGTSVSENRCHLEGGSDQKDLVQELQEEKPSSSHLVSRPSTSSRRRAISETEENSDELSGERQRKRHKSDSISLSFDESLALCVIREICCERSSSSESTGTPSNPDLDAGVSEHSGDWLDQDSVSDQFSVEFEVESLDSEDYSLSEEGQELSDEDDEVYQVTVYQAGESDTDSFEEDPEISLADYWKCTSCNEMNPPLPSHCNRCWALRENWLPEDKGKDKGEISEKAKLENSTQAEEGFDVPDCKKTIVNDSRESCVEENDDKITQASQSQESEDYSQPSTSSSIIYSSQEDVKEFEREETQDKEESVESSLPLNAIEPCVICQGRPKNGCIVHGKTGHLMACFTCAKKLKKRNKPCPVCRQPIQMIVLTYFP

Row | Compound | Ki [µM]
1 | O=C(N[C@@H](Cc1c[nH]c2cc(Br)ccc12)C(=O)O)c1ccccc1Oc1ccccc1 [2-phenoxybenzoyltryptophan derivative, R1C1] | 3
2 | O=C(N[C@@H](Cc1cn(C(=O)CCC2CCCC2)c2cc(Br)ccc12)C(=O)O)c1ccccc1Oc1ccccc1 [2-phenoxybenzoyltryptophan derivative, R1C2] | 0.8
3 | O=C(N[C@@H](Cc1cn(C(=O)OCc2ccccc2)c2cc(Br)ccc12)C(=O)O)c1ccccc1Oc1ccccc1 [2-phenoxybenzoyltryptophan derivative, R1C3] | 0.5
4 | O=C(N[C@@H](Cc1cn(Cc2ccc(OCc3ccccc3)cc2)c2cc(Br)ccc12)C(=O)O)c1ccccc1Oc1ccccc1 [2-phenoxybenzoyltryptophan derivative, R1C4] | 0.6
5 | O=C(N[C@@H](Cc1c[nH]c2cc(Cl)ccc12)C(=O)O)c1ccccc1Oc1ccccc1 [2-phenoxybenzoyltryptophan derivative, R2C1] | 6
6 | O=C(N[C@@H](Cc1cn(C(=O)CCC2CCCC2)c2cc(Cl)ccc12)C(=O)O)c1ccccc1Oc1ccccc1 [2-phenoxybenzoyltryptophan derivative, R2C2] | 0.8
7 | O=C(N[C@@H](Cc1cn(C(=O)OCc2ccccc2)c2cc(Cl)ccc12)C(=O)O)c1ccccc1Oc1ccccc1 [2-phenoxybenzoyltryptophan derivative, R2C3] | 0.6
8 | O=C(N[C@@H](Cc1cn(Cc2ccc(OCc3ccccc3)cc2)c2cc(Cl)ccc12)C(=O)O)c1ccccc1Oc1ccccc1 [2-phenoxybenzoyltryptophan derivative, R2C4] | 1
9 | O=C(N[C@@H](Cc1c[nH]c2cc(F)ccc12)C(=O)O)c1ccccc1Oc1ccccc1 [2-phenoxybenzoyltryptophan derivative, R3C1] | 20
10 | O=C(N[C@@H](Cc1cn(C(=O)CCC2CCCC2)c2cc(F)ccc12)C(=O)O)c1ccccc1Oc1ccccc1 [2-phenoxybenzoyltryptophan derivative, R3C2] | 0.4
11 | O=C(N[C@@H](Cc1cn(C(=O)OCc2ccccc2)c2cc(F)ccc12)C(=O)O)c1ccccc1Oc1ccccc1 [2-phenoxybenzoyltryptophan derivative, R3C3] | 0.8
12 | O=C(N[C@@H](Cc1cn(Cc2ccc(OCc3ccccc3)cc2)c2cc(F)ccc12)C(=O)O)c1ccccc1Oc1ccccc1 [2-phenoxybenzoyltryptophan derivative, R3C4] | 2
13 | N#Cc1ccc2[nH]cc(C[C@H](NC(=O)c3ccccc3Oc3ccccc3)C(=O)O)c2c1 [2-phenoxybenzoyltryptophan derivative, R4C1] | 10
14 | N#Cc1ccc2c(c1)c(C[C@H](NC(=O)c1ccccc1Oc1ccccc1)C(=O)O)cn2C(=O)CCC1CCCC1 [2-phenoxybenzoyltryptophan derivative, R4C2] | 0.6
15 | N#Cc1ccc2c(c1)c(C[C@H](NC(=O)c1ccccc1Oc1ccccc1)C(=O)O)cn2C(=O)OCc1ccccc1 [2-phenoxybenzoyltryptophan derivative, R4C3] | 0.6
16 | N#Cc1ccc2c(c1)c(C[C@H](NC(=O)c1ccccc1Oc1ccccc1)C(=O)O)cn2Cc1ccc(OCc2ccccc2)cc1 [2-phenoxybenzoyltryptophan derivative, R4C4] | 1
17 | Cc1ccc2[nH]cc(C[C@H](NC(=O)c3ccccc3Oc3ccccc3)C(=O)O)c2c1 [2-phenoxybenzoyltryptophan derivative, R5C1] | 10
18 | Cc1ccc2c(c1)c(C[C@H](NC(=O)c1ccccc1Oc1ccccc1)C(=O)O)cn2C(=O)CCC1CCCC1 [2-phenoxybenzoyltryptophan derivative, R5C2] | 0.2
19 | Cc1ccc2c(c1)c(C[C@H](NC(=O)c1ccccc1Oc1ccccc1)C(=O)O)cn2C(=O)OCc1ccccc1 [2-phenoxybenzoyltryptophan derivative, R5C3] | 0.1
20 | Cc1ccc2c(c1)c(C[C@H](NC(=O)c1ccccc1Oc1ccccc1)C(=O)O)cn2Cc1ccc(OCc2ccccc2)cc1 [2-phenoxybenzoyltryptophan derivative, R5C4] | 0.6
